Measurements as given in paper PMC5893132, “Selective inhibition of histamine-evoked Ca^2+ signals by compartmentalized cAMP in human bronchial airway smooth muscle cells” (Cell Calcium, 2018).
*: point of attachment. Myristoyl = CCCCCCCCCCCCCC(=O)*

Experiments:
[1] = tested on: hBASMCs; experiment: Increase in [Ca2+]i evoked directly by stimuli in fluo-4-loaded hBASMCs; format: cell-based, human; conditions: for increase in [Ca2+]i evoked by the substance itself: hBASMCs from donors 1-3, PGE2 and sulprostone in Ca2+-free HBS
Method: (§1) Two methods were used to measure [Ca^2+]i in populations of hBASMCs. For measurements using a FlexStation III plate-reader (Molecular Devices, Sunnyvale, CA, USA), hBASMCs were seeded into 96-well plates (10^4 cells per well). After about 4 days, when the cells were confluent, the medium was replaced with SMGM-2 without serum or growth factor supplements, and the cells were used after a further 24 h. This period in serum-free medium increased by about 2-fold the amplitude of the increases in [Ca^2+]i evoked by histamine (results not shown). Cells were washed with HEPES-buffered saline (HBS: 135 mM NaCl, 5.9 mM KCl, 1.2 mM MgCl2, 1.5 mM CaCl2, 11.6 mM HEPES, 11.5 mM D-glucose, pH 7.3), and loaded with fluo-4 by incubation with fluo-4-AM (2 μM) in HBS (100 μL per well) containing pluronic F127 (0.02%, v/v) and probenecid (2.5 mM). After 1 h at 20 °C, the medium was replaced with HBS (100 μL per well) containing probenecid (2.5 mM). After a further incubation at 20 °C for 1 h, the medium was replaced with HBS (60–80 μL per well) or nominally Ca^2+-free HBS, and the cells were used immediately for experiments at 20 °C. In some experiments, BAPTA (2.5 mM) was added to HBS during the recording; this reduced the free [Ca^2+] of the HBS to ∼120 nM without affecting the pH. Drug additions (20 μL at 4 or 5 times the final concentration) were added automatically. Fluorescence from fluo-4 (excitation 485 nm, emission 525 nm) was recorded at 1.44-s intervals using Softmax Pro 5.4 (Molecular Devices). Fluorescence was calibrated to [Ca^2+]i from: [Ca^2+]i=KDCa×(F−Fmin/Fmax−F) where, KDCa is the equilibrium dissociation constant of fluo-4 for Ca^2+ (345 nM), F is the recorded fluorescence, and Fmin and Fmax are the fluorescence values recorded after addition of triton-X-100 (0.1%, v/v) with either BAPTA (10 mM, Fmin) or CaCl2 (10 mM, Fmax). Although treatment with triton-X-100 releases fluo-4 from cells into the medium, the fluo-4 fluorescence is captured with the same efficiency whether it is trapped within cells or dispersed within the small volume of the wells (unpublished observations). Fmax was determined for each well at the end of an experiment, and the average value was used for each column of 8 wells. Fmin was determined from parallel wells on each plate.
(§2) For measurements of [Ca^2+]i using an FDSS 7000 FLIPR (Hamamatsu), hBASMCs were seeded into 384-well plates (8000 cells per well) in 20 μL of SMGM-2 containing 5% serum. After 24 h, the medium was replaced with 15 μL of serum-free SMGM-2, and after a further 6 h the cells were loaded with Ca^2+ indicator by addition of FLIPR calcium 4 assay kit (Molecular Devices) supplemented with probenecid (2.5 mM). The exact composition of this ‘no-wash’ indicator kit is not disclosed by the manufacturer, but it contains fluo-4-AM and components that reduce background fluorescence. The manufacture’s stock solution was diluted 10-fold into HBSS containing BSA (0.1%, w/v) and HEPES (20 mM); 5 μL of this solution was then added to each well (containing 15 μL of serum-free SMGM-2). After 2 h at 37 °C in humidified air containing 5% CO2, the plate was used for experiments at 20 °C. Most additions (5 μL) were prepared in HBSS supplemented with HEPES (20 mM) and BSA (0.1%, w/v). For more prolonged incubations, drugs were diluted in the initial loading medium (to avoid changes in dye-loading during the ‘no wash’ protocol). Fluorescence signals (excitation at 480 nm, emission at 540 nm) were calibrated to [Ca^2+]i after measurement of Fmin and Fmax uniquely for each well, using a KDCa = 345 nM.
(§3) All concentration-effect relationships were determined by addition of different drug concentrations to individual wells in the same multi-well plate, rather than by sequential additions to the same well. […]

[2] = tested on: histamine-evoked Ca^2+ signals in hBASMCs; experiment: Histamine-evoked Ca2+ signals in populations of fluo-4-loaded hBASMCs; format: cell-based, human; conditions: for effect on the inhibition of histamine-evoked Ca2+ signals by a maximally effective concentration of isoproterenol / effect on the sensitivity to isoproterenol of histamine-evoked Ca2+ signals: inhibitor pre-treatment 30 min, then isoproterenol 1 min
Method: as §1, §2, §3

| Molecule | increase in [Ca2+]i evoked by the substance itself [1] | effect on the inhibition of histamine-evoked Ca2+ signals by a maximally effective concentration of isoproterenol ([2]; histamine 10 μM, n = 9) | effect on the sensitivity to isoproterenol of histamine-evoked Ca2+ signals ([2]; histamine 10 μM, n = 9) | also measured |
| --- | --- | --- | --- | --- |
| 18:1 lysophosphatidic acid [LPA] | Cells from all three donors responded | – | – | – |
| O=C(Nc1ncnc2c1ncn2[C@@H]1O[C@@H]2COP(=O)(O)OC2C1O)c1ccccc1 (stereo in doubt) [6-Bnz-cAMP] | – | – | – | amplitude of the Ca2+ signals evoked by histamine, % of paired controls ([2]; 500 μM, 20 min pre-treatment, histamine 10 μM, n = 5): 54 ± 4% |
| Nc1ncnc2c1nc(Br)n2[C@@H]1O[C@@H]2COP(=O)(O)O[C@H]2[C@H]1O [8-Br-cAMP] | – | – | – | pIC50 for inhibition of histamine-evoked Ca2+ signals ([2]; pre-treatment 20 min, histamine 10 μM, n = 6): 3.32 ± 0.16 |
| CO[C@@H]1[C@@H]2OP(=O)(O)OC[C@H]2O[C@H]1n1c(Sc2ccc(Cl)cc2)nc2c(N)ncnc21 [8-pCPT-2′-O-Me-cAMP] | – | – | – | amplitude of the Ca2+ signals evoked by histamine, % of paired controls ([2]; 300 μM pre-treatment, histamine 10 μM): 103 ± 8% |
| Nc1ncnc2c1ncn2[C@@H]1O[C@H](COP(=O)(O)OP(=O)(O)OP(=O)(O)O)[C@@H](O)[C@H]1O [ATP] | cells from only one donor responded robustly to ATP (donor 3) | – | – | – |
| Cc1ccc(S(=O)(=O)c2c(C)cc(C)cc2C)cc1 [ESI-05, 4-methylphenyl-2,4,6-trimethylsulphone] | – | – | – | effect on the concentration-dependent inhibition of histamine-evoked Ca2+ signals by isoproterenol ([2]; ESI-05 25 μM, 30 min in HBS, histamine 10 μM added 1 min after isoproterenol, n = 9): had no effect |
| Cl.Cl.O=S(=O)(NCCNCC=Cc1ccc(Br)cc1)c1cccc2cnccc12 [H89, N-[2-[[3-(4-bromophenyl)-2-propenyl]amino]ethyl]-5-isoquinolinesulfonamide dihydrochloride] | – | had no significant effect | significantly reduced the sensitivity to isoproterenol | – |
| CCCCCCOC(=O)[C@]1(O)C[C@@H]2O[C@@]1(C)n1c3ccccc3c3c4c(c5c6ccccc6n2c5c31)C(=O)NC4 [KT5720, (9R,10S,12S)-2,3,9,10,11,12-hexahydro-10-hydroxy-9-methyl-1-oxo-9,12-epoxy-1H-diindolo[1,2,3-fg:3′,2′,1′-kl]pyrrolo[3,4-i][1,6]benzodiazocine-10-carboxylic acid, hexyl ester] | – | had no significant effect | Neither KT5720 nor PKI-myr significantly affected | – |
| C=C[C@@]1(C)CC(=O)[C@]2(O)[C@@]3(C)[C@@H](O)CCC(C)(C)[C@@H]3C(OC(=O)CCN(C)C)[C@H](OC(C)=O)[C@@]2(C)O1.Cl (stereo partly drawn) [NKH477, N,N-dimethyl-(3R,4aR,5S,6aS,10S,10aR,10bS)-5-(acetyloxy)-3-ethenyldodecahydro-10,10b-dihydroxy-3,4a,7,7,10a-pentamethyl-1-oxo-1H-naphtho[2,1-b]pyran-6-yl ester β-alanine hydrochloride] | – | – | – | effect on histamine-evoked Ca2+ signals ([2]; pre-treatment: 8-Br-cGMP, IBMX 20 min, forskolin 10 μM, NKH477 10 μM, butaprost 10 μM, TCS2510 1 μM 5 min): mimicked the effect of isoproterenol |
| Nc1ncnc2c1nc(Sc1ccc(Cl)cc1)n2[C@@H]1O[C@@H]2COP(O)(=S)O[C@H]2[C@H]1O (stereo partly drawn) [Rp-8-CPT-cAMPS, Rp-8-CPT-cAMPs] | – | had no significant effect | significant decrease in the sensitivity to isoproterenol, but the effect was small | – |
| Cn1c(=O)c2c(ncn2C)n(C)c1=O [caffeine] | A lack of response | – | – | – |
| C[N+](C)(C)CCOC(N)=O [carbachol, carbamylcholine chloride] | cells from only one other donor responded robustly to carbachol (donor 2) | – | – | effect of removal of extracellular Ca2+ on the peak increase in [Ca2+]i evoked by the stimulus ([1]; HBS vs Ca2+-free HBS (2.5 mM BAPTA added 37 s before the stimulus)): unaffected |
| myristoylated protein kinase inhibitor 14–22 amide (Myristoyl-SGRTGRRNA-NH2; SMILES CCCCCCCCCCCCCC(=O)N[C@@H](CO)C(=O)NCC(=O)N[C@@H](CCCNC(=N)N)C(=O)N[C@H](C(=O)NCC(=O)N[C@@H](CCCNC(=N)N)C(=O)N[C@@H](CCCNC(=N)N)C(=O)N[C@@H](CC(N)=O)C(=O)N[C@@H](C)C(N)=O)[C@@H](C)O; UniProt P61925 14-22, looked up, fragment) [PKI-myr] | – | had no significant effect | Neither KT5720 nor PKI-myr significantly affected | – |
